Measurements: patent publication US8956824B2, “Methods for identifying allosteric modulators of ship polypeptides” (British Columbia Cancer Agency Branch, priority 2006, dated 2015)

Legend:
SHIP2 enzyme = target: T1, SHIP2 enzyme (Homo sapiens, UniProt O15357); assay: In vitro SHIP enzyme assay, SHIP2; format: biochemical; details: FIG. 1B
T1 construct: purchased Echelon Biosciences (Salt Lake City, Utah)
T1 sequence (O15357 1-1258): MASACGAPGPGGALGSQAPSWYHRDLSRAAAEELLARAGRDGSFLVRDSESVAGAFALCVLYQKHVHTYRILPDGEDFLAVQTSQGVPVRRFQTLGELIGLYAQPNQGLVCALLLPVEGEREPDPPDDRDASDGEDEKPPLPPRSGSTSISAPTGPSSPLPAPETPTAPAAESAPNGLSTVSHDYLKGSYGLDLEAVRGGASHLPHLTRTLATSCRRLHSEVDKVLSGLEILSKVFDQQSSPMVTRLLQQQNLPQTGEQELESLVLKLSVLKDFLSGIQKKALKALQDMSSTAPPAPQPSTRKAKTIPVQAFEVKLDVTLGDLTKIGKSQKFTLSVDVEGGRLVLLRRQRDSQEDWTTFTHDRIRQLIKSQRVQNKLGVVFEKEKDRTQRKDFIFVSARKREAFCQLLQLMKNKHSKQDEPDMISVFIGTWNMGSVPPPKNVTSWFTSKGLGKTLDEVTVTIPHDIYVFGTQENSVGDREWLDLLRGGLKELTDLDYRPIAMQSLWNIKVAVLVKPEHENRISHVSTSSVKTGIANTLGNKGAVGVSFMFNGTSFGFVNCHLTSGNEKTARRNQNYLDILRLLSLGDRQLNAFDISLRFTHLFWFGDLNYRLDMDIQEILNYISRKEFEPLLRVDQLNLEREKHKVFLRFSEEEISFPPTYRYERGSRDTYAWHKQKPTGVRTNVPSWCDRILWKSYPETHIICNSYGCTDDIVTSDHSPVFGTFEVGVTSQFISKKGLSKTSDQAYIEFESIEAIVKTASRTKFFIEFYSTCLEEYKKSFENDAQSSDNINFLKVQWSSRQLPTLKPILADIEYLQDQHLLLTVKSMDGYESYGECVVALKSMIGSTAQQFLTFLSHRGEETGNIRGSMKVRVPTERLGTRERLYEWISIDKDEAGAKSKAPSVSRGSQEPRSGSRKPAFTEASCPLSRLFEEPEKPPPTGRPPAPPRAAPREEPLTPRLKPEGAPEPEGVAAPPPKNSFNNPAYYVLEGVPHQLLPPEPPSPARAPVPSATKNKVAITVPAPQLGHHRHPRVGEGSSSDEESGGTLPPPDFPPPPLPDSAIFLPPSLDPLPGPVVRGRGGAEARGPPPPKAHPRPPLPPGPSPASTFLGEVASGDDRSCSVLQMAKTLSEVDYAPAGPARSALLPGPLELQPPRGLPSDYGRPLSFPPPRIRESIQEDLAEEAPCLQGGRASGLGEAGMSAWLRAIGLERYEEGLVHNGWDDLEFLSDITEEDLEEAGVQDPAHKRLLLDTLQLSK
Procedure: In vitro SHIP enzyme assay. The SHIP enzyme assay was performed in 96-well microtitre plates with 10 ng of enzyme/well in a total volume of 25 μL of 20 mM Tris HCl, pH 7.5 and 10 mM MgCl2. SHIP1 enzyme was incubated with test extracts (provided in DMSO) or vehicle for 15 mM at 23° C. before the addition of 100 μM inositol-1,3,4,5-tetrakisphosphate (Echelon Biosciences Inc, Salt Lake City, Utah). The reaction was allowed to proceed for 20 min at 37° C. and the amount of inorganic phosphate released assessed by the addition of Malachite Green reagent followed by an absorbance measurement at 650 nm (15). SHIP2 enzyme was purchased from Echelon Biosciences (Salt Lake City, Utah) and an equivalent amount of inositol phosphatase activity was used in the in vitro enzyme assay. Enzyme data are expressed as the mean of triplicates+/−SEM. Experiments were performed at least 3 times.

[1] = test system: SHIP1+/+ and SHIP1−/− BMMCs; assay: IgE+antigen-induced calcium flux in BMMCs; format: cell-based, mouse; details: 30 min pretreatment, DNP-HSA stimulation
Procedure: Production of SHIP+/+ and SHIP−/− BMMCs and BMnφs. To obtain BMMCs, bone marrow cells were aspirated from 4 to 8 week old C57B16×129Sv mixed background mice and SHIP1+/+ and SHIP1−/− BMMCs prepared as described previously (17). After 8 weeks in IMDM+15% FCS (StemCell Technologies, Vancouver, Canada)+150 μM MTG+30 ng/ml IL-3 (BMMC medium) more than 99% of the cells were c-kit and FcεR1 positive as determined by flow cytometry with FITC-labeled anti-c-kit (BD Pharmingen, Mississauga, Canada) and FITC-labeled IgE (anti-Epo), respectively. BMmφs from SHIP1+/+ and SHIP1−/− mice were obtained and maintained in IMDM supplemented with 10% FCS, 150 μM MTG, 2% C127 cell conditioned medium as a source of macrophage colony stimulating factor (MCSF) (BMmφ medium).
Stimulation of BMMCs by FcεR1 crosslinking. SHIP1+/+ and SHIP1−/− BMMCs were pre-loaded overnight in BMMC medium lacking IL-3 with 0.1 μg/ml anti-DNP IgE (SPE-7, Sigma, Oakville, Ont). […] Calcium influx was then monitored by spectrofluorometry as described previously (19). […] Total cell lysates were then prepared and analyzed for phospho-PKB, phospho-p38MAPK, phospho-MAPK, Grb-2 (Cell Signalling, Mississauga, Ont) and SHIP1 (18) by immunoblot analysis as described previously (20). […]

**Q.** How did the “activation of SHIP1 versus SHIP2” value (SHIP2 enzyme) turn out when `Cc1cc(O)c(O)c2c1[C@]1(C)CC[C@H]3C(C)(C)CCC[C@]3(C)[C@H]1C2` [AQX-016A] was run?
**A.** Its value is “preferentially activates SHIP1 over SHIP2”.

**Q.** What about the “IgE+antigen-induced calcium entry, SHIP1+/+ vs SHIP1−/− mast cells” value [1] of the same compound?
**A.** Its value is “inhibited IgE+antigen-induced calcium entry to a substantially greater degree in SHIP1+/+ than in SHIP1−/−”.
